According to patent US10912815B2, “Inhibitors of mitochondrial fission and methods of use thereof” (The Board of Trustees of the Leland Stanford Junior …, priority 2011, dated 2021):
Residues, ends and D or L forms follow the SMILES beside them.

Experiments:
[1] = target: T1, Drp1 association with the mitochondria (Homo sapiens, UniProt O00429); test: Association of recombinant Drp1 (GST-Drp1) with isolated mouse liver mitochondria; format: binding; conditions: peptide 1 μM, GST-Drp1, FIG. 2C
T1 construct: GST (N); host or cells: recombinant GST-Drp1 of unstated origin; mitochondria from mouse liver tissue
T1 sequence (O00429 1-710 isoform O00429-3): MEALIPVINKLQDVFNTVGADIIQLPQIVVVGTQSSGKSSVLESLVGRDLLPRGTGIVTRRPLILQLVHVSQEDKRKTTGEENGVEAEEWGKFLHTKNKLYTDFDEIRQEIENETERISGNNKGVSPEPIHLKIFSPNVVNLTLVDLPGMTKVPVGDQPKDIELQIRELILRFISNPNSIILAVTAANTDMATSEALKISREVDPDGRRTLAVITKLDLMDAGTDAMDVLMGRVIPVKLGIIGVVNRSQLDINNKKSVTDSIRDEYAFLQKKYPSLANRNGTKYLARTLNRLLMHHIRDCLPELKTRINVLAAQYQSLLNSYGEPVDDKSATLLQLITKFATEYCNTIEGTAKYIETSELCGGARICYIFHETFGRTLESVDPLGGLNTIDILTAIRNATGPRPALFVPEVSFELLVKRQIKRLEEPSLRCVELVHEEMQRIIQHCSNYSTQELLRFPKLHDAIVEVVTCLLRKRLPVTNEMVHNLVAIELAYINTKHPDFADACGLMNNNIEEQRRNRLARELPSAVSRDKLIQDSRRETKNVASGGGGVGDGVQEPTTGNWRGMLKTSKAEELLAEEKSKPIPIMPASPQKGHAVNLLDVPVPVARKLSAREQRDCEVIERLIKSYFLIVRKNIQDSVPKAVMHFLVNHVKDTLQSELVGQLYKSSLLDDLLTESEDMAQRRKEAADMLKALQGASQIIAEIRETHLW
Experimental: If the peptides designed do represent PPI surfaces between Drp1 and Fis1, the peptides should inhibit the association of Drp1 with the mitochondria. To obtain isolated mitochondria, SH-5YSH cells were washed with cold phosphate-buffered saline (PBS) and incubated on ice in lysis buffer (250 mM sucrose, 20 mmol/L HEPES-NaOH, pH 7.5, 10 mmol/L KCl, 1.5 mmol/L MgCl2, 1 mmol/L EDTA, protease inhibitor cocktail, phosphatase inhibitor cocktail) for 30 minutes. Cells were scraped and then disrupted 10 times by repeated aspiration through a 25 gauge needle, followed by a 30 gauge needle. Mouse liver tissue was minced and ground by pestle in lysis buffer. The homogenates were spun at 800 g for 10 min at 4° C. and the resulting supernatants were spun at 10,000 g for 20 minutes at 4° C. The pellets were washed with lysis buffer and spun at 10,000 g again for 20 minutes at 4° C. The final pellets were suspended in lysis buffer containing 1% Triton X-100 and were mitochondrial-rich lysate fractions.
Mitochondria isolated from mouse liver were incubated with recombinant Drp1 (GST-Drp1). Drp1 bound to mitochondrial preparation and only P110 (1 μM) reduced this association by >60% (p<0.01, FIG. 2C); peptide carrier TAT47-57 or the other Drp1-derived peptides had no effect. The mitochondrial membrane protein VDAC was used as marker and loading control.

Recombinant protein Drp1 = Recombinant protein Drp1 (Homo sapiens, UniProt O00429); test: In vitro GTPase assay, recombinant Drp1; format: biochemical; conditions: for inhibition in the GTPase activity of recombinant Drp1: recombinant Drp1 25 ng, 30 min incubation with peptide, FIG. 2A
Sequence of Recombinant protein Drp1 (O00429 1-710 isoform O00429-3): as above
Experimental: (§1) First, mitochondrial fission inhibitor constructs were tested to determine what, if any, effects each peptide had on enzyme (GTPase) activity. Recombinant protein Drp1, Mfn1, OPA1 or dynamin-1 (25 ng) was incubated with the indicated modulator peptides for 30 min. GTPase activity was assayed in vitro using a GTPase assay kit (Innova Biosciences, Littleton, USA, or Novus Biologicals, Littleton, Colo.) according to manufacturer's instructions.

[2] = tested on: isolated mouse liver mitochondria with Drp1 recombinant protein; test: Superoxide production of isolated mouse liver mitochondria after addition of recombinant Drp1; format: biochemical; conditions: isolated mouse liver mitochondria 50 μg, Drp1 50 ng, P110 1 μM, p<0.05, n=3, FIG. 6C
Experimental: Mitochondrial membrane potential was also determined using TMRM (tetramethylrhodamine methylester). Fifty μg of mitochondria were incubated with recombinant Drp1 (50 ng) followed by incubation with TMRM (0.5 μM) in the presence or absence of P110 (1 μM) or NAC (2.5 mM). Fluoresence detection was performed using black 96-well plates in a fluorescence microplate reader at 560 nm excitation and 690 nm emission and potential was assessed by quenching of the fluorescent signal. The data are presented as mean±S.E. of percentage relative to control mitochondria from three independent experiments (FIG. 6B, #, p<0.05 vs. control cells; *, p<0.05; **, P<0.01 vs. MPP+- or CCCP-treated cells). Isolated mouse liver mitochondria (50 μg) were incubated with Drp1 recombinant protein (50 ng) in the presence or absence of P110 (1 μM). A kinetic change of mitochondrial superoxide production was determined by using MITOSOX™ (red mitochondrial superoxide indicator). […] Mitochondrial membrane potential of isolated mouse liver mitochondria was determined by TMRM, as described above, in the indicated groups. […] Protein levels of cytochrome c in the mitochondria were determined by western blot analysis with anti-cytochrome c antibodies in the indicated groups (insert, FIG. 6D). Total ROS production was determined by staining SH-SY5Y cells with CM2HDCFA (1 μM […] at 37° C.) in the indicated groups. […]

[3] = tested on: isolated mouse liver mitochondria with Drp1 recombinant protein; test: Membrane potential of isolated mouse liver mitochondria incubated with Drp1 (TMRM); format: biochemical; conditions: P110 1 μM, NAC 2.5 mM, FIG. 6D bottom
Experimental: Mitochondrial membrane potential was also determined using TMRM (tetramethylrhodamine methylester). Fifty μg of mitochondria were incubated with recombinant Drp1 (50 ng) followed by incubation with TMRM (0.5 μM) in the presence or absence of P110 (1 μM) or NAC (2.5 mM). Fluoresence detection was performed using black 96-well plates in a fluorescence microplate reader at 560 nm excitation and 690 nm emission and potential was assessed by quenching of the fluorescent signal. The data are presented as mean±S.E. of percentage relative to control mitochondria from three independent experiments (FIG. 6B, #, p<0.05 vs. control cells; *, p<0.05; **, P<0.01 vs. MPP+- or CCCP-treated cells). Isolated mouse liver mitochondria (50 μg) were incubated with Drp1 recombinant protein (50 ng) in the presence or absence of P110 (1 μM). A kinetic change of mitochondrial superoxide production was determined by using MITOSOX™ (red mitochondrial superoxide indicator). The data are presented as mean±S.E. of percentage relative to the value at basal level from three independent experiments (FIG. 6C, #, p<0.05 vs. control mitochondria; *, p<0.05 vs. mitochondria with the addition of Drp1). Mitochondrial membrane potential of isolated mouse liver mitochondria was determined by TMRM, as described above, in the indicated groups. NAC (2.5 mM) was used as a positive control (FIG. 6D). Protein levels of cytochrome c in the mitochondria were determined by western blot analysis with anti-cytochrome c antibodies in the indicated groups (insert, FIG. 6D). Total ROS production was determined by staining SH-SY5Y cells with CM2HDCFA (1 μM […] at 37° C.) in the indicated groups. The data are presented as mean±S.E. of percentage relative to control group from three independent experiments (FIG. 6E, *, p<0.05 vs. either MPP+ or CCCP treated-group; #, p<0.05 vs. control group).
The mitochondrial membrane potential of isolated mouse liver mitochondria was then measured in the presence or absence of P110.

Mfn1 = target: T2, Mfn1 (Homo sapiens, UniProt Q8IWA4); test: In vitro GTPase assay, recombinant Mfn1; format: biochemical; conditions: p<0.05, n=3, FIG. 2F
T2 sequence (Q8IWA4 1-741): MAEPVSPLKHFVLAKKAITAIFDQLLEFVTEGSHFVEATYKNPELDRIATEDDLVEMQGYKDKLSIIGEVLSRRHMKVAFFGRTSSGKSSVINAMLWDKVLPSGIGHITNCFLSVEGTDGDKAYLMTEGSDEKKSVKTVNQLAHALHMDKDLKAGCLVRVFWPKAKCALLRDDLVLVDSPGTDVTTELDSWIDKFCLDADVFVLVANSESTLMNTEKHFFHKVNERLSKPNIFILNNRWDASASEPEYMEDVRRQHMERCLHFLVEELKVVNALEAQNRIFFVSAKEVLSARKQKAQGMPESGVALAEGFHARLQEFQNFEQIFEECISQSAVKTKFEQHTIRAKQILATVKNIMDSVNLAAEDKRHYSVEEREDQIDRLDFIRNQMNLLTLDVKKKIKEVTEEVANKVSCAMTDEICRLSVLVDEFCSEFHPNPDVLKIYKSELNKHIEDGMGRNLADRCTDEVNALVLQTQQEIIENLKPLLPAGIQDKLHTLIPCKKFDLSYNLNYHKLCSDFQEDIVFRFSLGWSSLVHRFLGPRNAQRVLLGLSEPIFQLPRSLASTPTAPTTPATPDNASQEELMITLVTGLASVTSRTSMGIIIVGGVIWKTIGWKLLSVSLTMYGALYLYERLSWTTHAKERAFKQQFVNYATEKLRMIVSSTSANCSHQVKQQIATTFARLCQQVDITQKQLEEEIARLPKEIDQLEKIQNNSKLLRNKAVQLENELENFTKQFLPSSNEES
Experimental: as §1

OPA1 = target: T3, OPA1 (Homo sapiens, UniProt O60313); test: In vitro GTPase assay, recombinant OPA1; format: biochemical; conditions: p<0.05, n=3, FIG. 2F
T3 sequence (O60313 88-960): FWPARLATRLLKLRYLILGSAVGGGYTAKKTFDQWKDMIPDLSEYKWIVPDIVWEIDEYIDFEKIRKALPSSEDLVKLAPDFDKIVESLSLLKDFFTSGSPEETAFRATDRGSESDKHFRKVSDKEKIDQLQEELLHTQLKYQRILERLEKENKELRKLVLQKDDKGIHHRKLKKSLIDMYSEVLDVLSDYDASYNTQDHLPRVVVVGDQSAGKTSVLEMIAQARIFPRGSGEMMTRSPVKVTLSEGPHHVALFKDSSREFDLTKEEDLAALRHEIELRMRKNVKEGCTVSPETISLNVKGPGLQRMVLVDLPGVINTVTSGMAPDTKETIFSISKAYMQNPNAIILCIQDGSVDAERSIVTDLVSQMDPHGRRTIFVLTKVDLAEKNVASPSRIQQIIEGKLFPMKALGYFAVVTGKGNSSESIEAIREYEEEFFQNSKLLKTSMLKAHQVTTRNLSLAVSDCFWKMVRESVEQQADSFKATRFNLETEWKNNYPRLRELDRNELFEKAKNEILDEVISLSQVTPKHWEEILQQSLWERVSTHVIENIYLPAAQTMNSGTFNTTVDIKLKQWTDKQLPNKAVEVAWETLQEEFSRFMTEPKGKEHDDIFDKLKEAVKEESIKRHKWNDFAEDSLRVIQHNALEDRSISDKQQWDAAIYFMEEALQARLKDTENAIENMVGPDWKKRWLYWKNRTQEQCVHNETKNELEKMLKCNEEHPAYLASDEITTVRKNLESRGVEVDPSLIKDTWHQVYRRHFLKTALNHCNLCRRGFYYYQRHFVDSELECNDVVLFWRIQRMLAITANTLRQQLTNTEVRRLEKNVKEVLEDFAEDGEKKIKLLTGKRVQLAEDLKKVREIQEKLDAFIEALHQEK
Experimental: as §1

SH-SY5Y cells = conditions: peptides 1 μM each, MPP+ 2 mM for 24 hours, FIG. 9E
Experimental: Cell viability of stressed SH-SY5Y cells was measured by MTT assay.
In another experiment, Human SH-SY5Y cells were treated with Drp1 P108, P109 or P110 or Fis1 P111, P112 or P113 (0.5 μM) for 15 min followed by treatment with MPP+(1 mM for 24 hrs). The cell viability was then determined by MTT test.

Dnm1 (yeast Drp1) = target: T4, Dnm1 (yeast Drp1) (Saccharomyces cerevisiae, UniProt P54861); conditions: yeast and mammals, by blocking Dnm1 polymerization; cited from earlier work
T4 sequence (P54861 1-757): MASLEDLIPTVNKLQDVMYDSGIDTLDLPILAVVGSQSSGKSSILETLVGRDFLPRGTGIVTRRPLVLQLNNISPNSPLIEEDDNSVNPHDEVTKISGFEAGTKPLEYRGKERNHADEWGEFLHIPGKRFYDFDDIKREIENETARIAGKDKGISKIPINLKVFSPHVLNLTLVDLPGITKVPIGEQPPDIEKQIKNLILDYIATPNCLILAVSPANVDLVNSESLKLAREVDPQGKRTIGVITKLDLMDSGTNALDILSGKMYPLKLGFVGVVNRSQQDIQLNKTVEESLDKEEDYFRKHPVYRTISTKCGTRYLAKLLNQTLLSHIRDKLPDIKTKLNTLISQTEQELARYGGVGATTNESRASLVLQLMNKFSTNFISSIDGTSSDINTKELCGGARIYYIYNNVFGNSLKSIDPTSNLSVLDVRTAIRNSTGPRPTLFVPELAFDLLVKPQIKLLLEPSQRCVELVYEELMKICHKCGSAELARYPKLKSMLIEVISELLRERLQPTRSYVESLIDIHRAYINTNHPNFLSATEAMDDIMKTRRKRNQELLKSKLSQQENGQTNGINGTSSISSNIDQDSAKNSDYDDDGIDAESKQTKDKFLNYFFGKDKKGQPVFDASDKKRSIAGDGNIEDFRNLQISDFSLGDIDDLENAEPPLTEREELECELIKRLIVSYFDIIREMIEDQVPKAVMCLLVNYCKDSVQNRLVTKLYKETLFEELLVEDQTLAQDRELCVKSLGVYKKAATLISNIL

Compound: TAT47-57: cell permeating TAT protein-derived peptide carrier, used alone as control peptide
- reduction of association of Drp1 with mitochondrial preparation [1]: no effect

Compound: Drp1 K38A: dominant negative mutant of Drp1, which inhibits Drp1 GTPase activity and fission activity; positive control
- inhibition in the GTPase activity of recombinant Drp1 (Recombinant protein Drp1): ~70%
- Drp1-induced ROS (superoxide) elevation in the mitochondria [2]: abolished
- mitochondrial membrane potential (MMP) of isolated mitochondria after Drp1 addition [3]: similar

Compound: CC(C)C[C@H](NC(=O)[C@H](CCCCN)NC(=O)CNC(=O)CNC(=O)[C@H](Cc1ccc(O)cc1)NC(=O)CNC(=O)[C@H](CCCNC(=N)N)NC(=O)[C@H](CCCCN)NC(=O)[C@H](CCCCN)NC(=O)[C@H](CCCNC(=N)N)NC(=O)[C@H](CCCNC(=N)N)NC(=O)[C@H](CCC(N)=O)NC(=O)[C@H](CCCNC(=N)N)NC(=O)[C@H](CCCNC(=N)N)NC(=O)[C@@H](N)CCCNC(=N)N)C(=O)N[C@@H](CO)C(=O)N[C@@H](C)C(=O)N[C@@H](CCCNC(=N)N)C(=O)N[C@@H](CCC(=O)O)C(=O)N[C@@H](CCC(N)=O)C(=O)N[C@@H](CCCNC(=N)N)C(=O)N[C@@H](CC(=O)O)C(N)=O [P109] (H-RRRQRRKKRGYGGKLSAREQRD-NH2)
- inhibition in the GTPase activity of recombinant Drp1 (Recombinant protein Drp1): 40%
- GTPase activity of MFN1 (increased) (Mfn1): 229%±10
- GTPase activity of OPA1 (increased) (OPA1): 177%±13

Compound: RRRQRRKKRGYGGELLPKG (RRRQRRKKRGYGGELLPKGS) [P113]
- inhibition in the GTPase activity of recombinant Drp1 (Recombinant protein Drp1): no significant effect
- cell viability (MTT) (SH-SY5Y cells): no significant effect

Compound: CC(=O)N[C@@H](CS)C(=O)O [NAC, N-Acetyl cysteine, reference compound]
- mitochondrial membrane potential (MMP) of isolated mitochondria after Drp1 addition [3]: prevented the dissipated MMP

Compound: N=C(N)NCCC[C@H](NC(=O)[C@H](CCCCN)NC(=O)[C@H](CCCCN)NC(=O)[C@H](CCCNC(=N)N)NC(=O)[C@H](CCCNC(=N)N)NC(=O)[C@H](CCC(N)=O)NC(=O)[C@H](CCCNC(=N)N)NC(=O)[C@H](CCCNC(=N)N)NC(=O)[C@@H](N)CCCNC(=N)N)C(=O)NCC(=O)N[C@@H](Cc1ccc(O)cc1)C(=O)NCC(=O)NCC(=O)N[C@@H](CCCCN)C(=O)NCC(=O)N[C@@H](CO)C(=O)N[C@@H](CCCCN)C(=O)N[C@@H](CCC(=O)O)C(=O)N[C@@H](CCC(=O)O)C(=O)N[C@@H](CCC(N)=O)C(=O)N[C@@H](CCCNC(=N)N)C(=O)N[C@@H](CC(=O)O)C(N)=O [P112] (H-RRRQRRKKRGYGGKGSKEEQRD-NH2)
- specifically inhibited Drp1 GTPase activity (Recombinant protein Drp1; in vitro GTPase assay, n=3, first statement of b271): 50%
- inhibition in the GTPase activity of recombinant Drp1 (Recombinant protein Drp1): no significant effect

Compound: COc1cc(-n2c(=S)[nH]c3ccccc3c2=O)c(Cl)cc1Cl [Mdivi-1]
- mitochondrial division (Dnm1 (yeast Drp1)): inhibits mitochondrial division
